# Measured values taken from patent US20240254089A1, “MODULATORS OF MAS-RELATED G-PROTEIN RECEPTOR X4 AND RELATED PRODUCTS AND METHODS” (ESCIENT PHARMACEUTICALS, INC., priority 2020, published 2024).
# Read-outs that look alike come from different tables or passages of the source.
# Biological target: T1, human MRGPR X4 (Homo sapiens, UniProt Q96LA9)
# T1 construct: expressed in transfected cells
# Assay: MRGPR X4 antagonist activity, IP-One Gq HTRF assay in stably transfected HEK cells
# Type: cell-based
# In short: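 IC50 comes from HTRF IP-1 accumulation in stably transfected HEK cells expressing human MRGPR X4. Compounds (10 uM top, 1:3 serial, 10 points) were co-incubated with 10 μM bilirubin, 20 μM deoxycholic acid or 100 μM conjugated bilirubin in LiCl-containing buffer, pH 8, for 1 h at 37 °C plus 30 min at room temperature.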
# T1 sequence (Q96LA9 whole entry): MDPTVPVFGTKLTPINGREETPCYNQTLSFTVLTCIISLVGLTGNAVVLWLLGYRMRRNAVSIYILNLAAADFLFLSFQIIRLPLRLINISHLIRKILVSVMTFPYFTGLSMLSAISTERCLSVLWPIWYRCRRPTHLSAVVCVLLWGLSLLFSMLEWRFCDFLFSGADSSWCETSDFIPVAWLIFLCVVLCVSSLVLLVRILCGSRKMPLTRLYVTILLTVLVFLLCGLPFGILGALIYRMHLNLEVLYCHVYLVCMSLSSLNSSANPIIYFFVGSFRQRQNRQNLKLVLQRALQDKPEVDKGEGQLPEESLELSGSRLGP
compound,measurement,setting,value
COc1ccc(Cn2nc(C(=O)NCCc3cccnc3)c3ccccc32)cc1 [Compound 66],IC50,,100 to 500 nM
O=C(NCCN1CCOCC1)c1nn(Cc2ccc(Cl)cc2)c2ccccc12 [Compound 351],IC50,,> 2500 nM
Cc1ncccc1CCNC(=O)c1cn(Cc2cccc(F)c2)c2ccccc12 [Compound 212],IC50,,1000 to 2500 nM
O=C(NCCc1nnc2ccccn12)c1nn(Cc2cccc3c2OCO3)c2ccccc12 [Compound 433],IC50,,501 to 1000 nM
Cc1cccc(S(=O)(=O)NC(=O)c2nn(Cc3ccc(OC(F)F)cc3)c3ccccc23)c1 [Compound 270],IC50,,1000 to 2500 nM
CCc1ccc(Cn2nc(C(=O)NCCc3nnc4ccccn34)c3ccccc32)cc1 [Compound 447],IC50,,100 to 500 nM
O=C(NCCc1cccnc1)c1nn(Cc2ccc(Cl)c(Cl)c2)c2ccccc12 [Compound 22],IC50,,< 100 nM
Cc1ccc(Cn2nc(C(=O)NCCc3nc4c(s3)COCC4)c3ccccc32)cc1 [Compound 65],IC50,,100 to 500 nM
CN1CCN(CCCn2nc(C(=O)NCCc3nnc4ccccn34)c3ccccc32)CC1 [Compound 444],IC50,,> 2500 nM
O=C(NCc1ncc(-c2ccccc2)[nH]1)c1nn(Cc2ccc(Cl)cc2)c2ccccc12 [Compound 429],IC50,,501 to 1000 nM
O=C(NCCc1ccc(C(F)(F)F)nc1)c1cn(Cc2ccc(Cl)cc2)c2ccccc12 [Compound 197],IC50,,501 to 1000 nM
O=C(NCCc1ccccc1OC(F)(F)F)c1cn(Cc2ccc(Cl)cc2)c2ccccc12 [Compound 194],IC50,,501 to 1000 nM
"O=C(O)c1nn(Cc2ccc(Cl)cc2Cl)c2ccccc12 [Compound 316, 1-(2,4-dichlorobenzyl)-1H-indazole-3-carboxylic acid]",IC50,"versus 20 μM deoxycholic acid agonist, HEK cells expressing human MRGPR X4, read-out: MRGPRX4 Antagonist Activity",1000 to 2500 nM
O=C(NCCc1nc2c(s1)CCCC2)c1nn(Cc2ccc(Cl)c(F)c2)c2ccccc12 [Compound 54],IC50,,100 to 500 nM
O=C(NS(=O)(=O)c1ccc(Cl)cc1Cl)c1nn(Cc2cccc(F)c2)c2ccccc12 [Compound 261],IC50,,501 to 1000 nM
